Assay results from ChEMBL document CHEMBL4052750, “Structure-based optimization and synthesis of antiviral drug Arbidol analogues with significantly improved affinity to influenza hemagglutinin” (Bioorg Med Chem Lett, 2017).

Key:
[1] = Binding affinity to Influenza A virus (A/Puerto Rico/8/1934(H1N1)) PR8 hemagglutinin-1 by biolayer interferometry analysis
[2] = Binding affinity to Influenza A virus (A/Hong Kong/1/1968(H3N2)) […] by biolayer interferometry analysis
[3] = tested on: Influenza A virus (A/Hong Kong/1/1968(H3N2)); test: Potency index, ratio of Kd for Arbidol to Kd for test compound for binding affinity to Influenza A virus (A/Hong Kong/1/1968(H3N2)) […] by biolayer interferometry analysis
[4] = tested on: Influenza A virus (A/Puerto Rico/8/1934(H1N1)); test: Binding affinity to Influenza A virus (A/Puerto Rico/8/1934(H1N1)) PR8 hemagglutinin-1 assessed as association constant after 180 secs by biolayer interferometry analysis
[5] = tested on: Influenza A virus (A/Puerto Rico/8/1934(H1N1)); test: Binding affinity to Influenza A virus (A/Puerto Rico/8/1934(H1N1)) PR8 hemagglutinin-1 assessed as dissociation constant after 180 secs by biolayer interferometry analysis
[6] = tested on: Influenza A virus (A/Hong Kong/1/1968(H3N2)); test: Binding affinity to Influenza A virus (A/Hong Kong/1/1968(H3N2)) […] assessed as association constant after 180 secs by biolayer interferometry analysis
[7] = tested on: Influenza A virus (A/Hong Kong/1/1968(H3N2)); test: Binding affinity to Influenza A virus (A/Hong Kong/1/1968(H3N2)) […] assessed as dissociation constant after 180 secs by biolayer interferometry analysis
[8] = tested on: Influenza A virus (A/Puerto Rico/8/1934(H1N1)); test: Potency index, ratio of Kd for Arbidol to Kd for test compound for binding affinity to Influenza A virus (A/Puerto Rico/8/1934(H1N1)) PR8 hemagglutinin-1 by biolayer interferometry analysis

Compound	Kd ([1]; read-out: Kd) [µM]	Kd ([2]; read-out: Kd) [µM]	Kd [1]	further results
CCOC(=O)c1c(CSc2ccc3ccccc3c2)n(C)c2cc(Br)c(O)cc12	18	45	–	–
CCOC(=O)c1c(CSc2ccccc2)n(C)c2cc(Br)c(O)cc12	38	11	–	–
CCOC(=O)c1c(CSc2ccccc2)n(C)c2cc(Br)c(O)c(CN3CCN(CCO)CC3)c12	–	46	Not Active	–
CCOC(=O)c1c(CSc2ccc3ccccc3c2)n(C)c2cc(Br)c(O)c(CN(C)C)c12	–	–	Not Active	Kd [2]: Not Active
CCOC(=O)c1c(CSc2cccc(O)c2)n(C)c2cc(Br)c(O)cc12	75	17	–	–
CCOC(=O)c1c(CSc2ccccc2)n(C)c2cc(Br)c(O)c(CN3CCN(C(=O)OC(C)(C)C)CC3)c12	41	–	–	Kd [2]: Not Active
CCOC(=O)c1c(CSc2cccc(N)c2)n(C)c2cc(Br)c(O)cc12	–	> 100	Not Active	–
CCOC(=O)c1c(CSc2cccc(O)c2)n(C)c2cc(Br)c(O)c(CN(C)C)c12	0.48 to 0.55	–	–	Ratio [3]: 1150; K [4]: 7.06 ×10⁴ /M/s; K [5]: 3.42 ×10⁻² /s; K [6]: 2.41 ×10⁵ /M/s; K [7]: 1.93 ×10⁻² /s; Ratio [8]: 98
CCOC(=O)c1c(CSc2ccccc2)n(C)c2cc(Br)c(O)c(CN(C)C)c12 [UMIFENOVIR]	47	92	–	K [4]: 1 ×10³ /M/s; K [5]: 4.8 ×10⁻² /s; K [6]: 2.3 ×10² /M/s; K [7]: 2.8 ×10⁻² /s
CCOC(=O)c1c(CSc2cccc(N)c2)n(C)c2cc(Br)c(O)c(CN(C)C)c12	–	7.4	Not Active	–
